Literature values as cited in patent publication US20070128276A1 (PANACEA BIOTEC LTD., priority 1999, published 2007).

Tests used:
prostaglandin synthesis = conditions: in vitro
yeast-induced fever = conditions: rats with yeast-induced fever
[1] = animal studies
[2] = test system: renal prostaglandin synthesis; conditions: rats

CS(=O)(=O)Nc1ccc([N+](=O)[O-])cc1Oc1ccccc1 [Nimesulide]
oral drug absorption: nearly complete | effect of concomitant food on absorption (oral, concomitant administration of food): may decrease the rate, but not the extent of absorption | bound to plasma proteins (plasma proteins): 99% | inhibition of prostaglandin synthesis (prostaglandin synthesis): relatively weak inhibitor | antipyretic potency versus reference drugs (yeast-induced fever): superior antipyretic potency to indomethacin, ibuprofen, aspirin and paracetamol (acetaminophen) | ulcerogenicity versus reference NSAIDs [1]: less ulcerogenic than aspirin, indomethacin, naproxen, piroxicam and ibuprofen | effect on renal prostaglandin synthesis [2]: little effect
